# Where two headings read alike, the source gives them in different places. Marks after values point to notes of the source that are not given here.
# How the values were obtained:
# [1] = Metabolic stability in mouse liver microsomes; assay type: in vitro ADME; conditions: for half-life at 0.5 μM: mouse, liver microsomes
# Method: Test compounds (0.5 μM) were incubated at 37° C. for up to 45 minutes in 50 mM of potassium phosphate buffer (pH 7.4) containing mouse liver microsomal protein (0.5 mg/mL) and an NADPH generating system (0.34 mg/mL β-nicotinamide adenine dinucleotide phosphate (NADP), 1.56 mg/mL glucose-6-phosphate, 1.2 units/mL glucose-6-phosphate dehydrogenase). At 0, 5, 15, 30, and 45 minute intervals, an aliquot was taken and quenched with acetonitrile (ACN) containing internal standard. No-cofactor controls at 45 minutes were prepared. Following completion of the experiment, the samples were analyzed by LC-MS/MS.
# The half-life (t1/2) was calculated using the following equation: t1/2=0.693/k Where, k is the elimination rate constant of test compounds obtained by fitting the data to the equation: C=initial×exp(−k×t) Intrinsic clearance (Clint) is calculated as liver clearance from the half-life using the following equation: […]
# 0.5 mg protein/mL incubation
# Ethoxycoumarin was used as a control.
# [2] = In vitro stability study in mouse plasma; assay type: in vitro ADME; conditions: for Percent Remaining: 37° C.
# Method: The assay was conducted by incubating 1 μM of test compounds with Mouse Plasma (Strain […]) for a series of incubation times (0, 15, 30, 60, 120 minutes) at various temperatures (wet ice, room temperature, or 37° C.) with 5% CO2 and shaking (130 rpm). At each time point, the samples were quenched with 200 μL of stop solution containing an internal standard and kept on ice. The samples were analysed by LC-MS/MS.
# [3] = system: C57BL/6 mice, kidney ischemia-reperfusion injury; assay: Kidney model of ischemia-reperfusion injury (IRI); assay type: in vivo
# Method: As an initial in vivo study, the effects of Fer-1 and SRS16-86 on serum creatinine, a marker of kidney damage, were evaluated in an ischemia reperfusion injury (IRI) model of kidney failure (FIG. 21).
# Organs were dissected as indicated in each experiment and infused with 4% (vol/vol) neutral-buffered formaldehyde, fixated for 48 h, dehydrated in a graded ethanol series and xylene, and finally embedded in paraffin. Stained sections were analyzed using an Axio Imager microscope (Zeiss). Kidney damage was quantified by two experienced pathologists in a double-blind manner on a scale ranging from 0 (unaffected tissue) to 10 (severe organ damage). The following parameters were chosen as indicative of morphological damage to the kidney after ischemia-reperfusion injury (IRI): brush border loss, red blood cell extravasation, tubule dilatation, tubule degeneration, tubule necrosis, and tubular cast formation. These parameters were evaluated on a scale of 0-10, which ranged from not present (0), mild (1-4), moderate (5 or 6), severe (7 or 8), to very severe (9 or 10). Each parameter was determined on at least four different animals.
# Induction of kidney IRI was performed via a midline abdominal incision and a bilateral renal pedicle clamping for either 40 min (severe IRI, or “lethal-to-WT” IRI) or 50 min (ultra-severe IRI) using microaneurysm clamps (Aesculab). Throughout the surgical procedure, the body temperature was maintained between 36° C. and 37° C. by continuous monitoring using a temperature-controlled self-regulated heating system (Fine Science Tools). After removal of the clamps, reperfusion of the kidneys was confirmed visually. The abdomen was closed in two layers using standard 6-0 sutures. Sham-operated mice underwent the identical surgical procedures, except that microaneurysm clamps were not applied. To maintain fluid balance, all of the mice were supplemented with 1 mL of prewarmed PBS administered intraperitoneally directly after surgery. All mice were killed 48 h after reperfusion for each experiment. […] All ischemia-reperfusion experiments were performed in a double-blinded manner.
# HT1080 cells = assay: FACS (7AAD / annexin V) of erastin-treated HT1080 cells; assay type: cell-based, human; conditions: 50 μM erastin, 1 μM compound
# Method: (§1) For induction of necroptosis, HT-29 cells were stimulated for 24 h at 37° C. with 100 ng/mL TNFα plus 1 μM Smac mimetics plus 25 μM zVAD as indicated (vehicle-treated cells served as control). For induction of ferroptosis, NIH and HT-1080 cells were each stimulated for 24 h at 37° C. with 50 μM erastin as indicated (vehicle-treated cells served as a control). For induction of apoptosis, Jurkat cells were stimulated for 4 h with 100 ng/mL monoclonal anti-Fas (clone 7C11; Immunotech). Anti-Fas-induced apoptosis of Jurkat cells was inhibited by further addition of 25 μM zVAD (vehicle-treated cells served as control).
# (§2) Phosphatidylserine exposure to the outer cell membrane of apoptotic cells or at the inner plasma membrane of necrotic cells and incorporation of 7-AAD into necrotic cells were quantified by fluorescence-activated cell sorting (FACS) analysis. The ApoAlert annexin V-FITC antibody and the 7-AAD antibody were purchased from BD Biosciences.
# NIH 3T3 cells = assay: FACS (7AAD / annexin V) of erastin-treated NIH 3T3 cells; assay type: cell-based, murine; conditions: 50 μM erastin, 1 μM compound
# Method: as §1, §2
# [4] = system: freshly isolated murine renal tubules; assay: Synchronized necrosis of freshly isolated renal tubules (fatty-acid depletion / erastin); assay type: cell-based, mouse; conditions: in the presence of fatty acids
# Method: Six to 12 mice were used for each isolated tubule preparation, depending on the amount of material needed for particular experiments. For preparation of isolated tubules, mice were anesthetized with ketamine (100 mg/kg i.p.) and xylazine (10 mg/kg i.p.), and the kidneys were immediately removed. Type I collagenase was from Worthington Biochemical. Percoll was purchased from Amersham Biosciences. All other reagents and chemicals, including delipidated BSA, were of the highest grade available from Sigma-Aldrich. […] The cortices were then dissected and minced on an ice-cold tile and then resuspended in additional solution A for 8-10 min of digestion at 37° C., followed by enrichment of proximal tubules using centrifugation on self-forming Percoll gradients. For Nec-1 studies in renal tubules, renal cortices were dissected in ice-cold dissection solution (DS) [HBSS with 10 mmol/L glucose, 5 mmol/L glycine, 1 mmol/L alanine, 15 mmol/L Hepes (pH 7.4); osmolality, 325 mOsmol/L] and sliced into 1-mm pieces. The fragments were transferred to collagenase solution (DS with 0.1% (wt/vol) type 2 collagenase and 96 μg/mL soybean trypsin inhibitor) and digested for 30 min at 37° C. and 61×g. After digestion, the supernatant was sieved through two nylon sieves: first 250-μm pore size and then 100-μm pore size. […]
compound,measurement,setting,value
"CC(C)(C)OC(=O)c1ccc(NC23CC4CC(CC(C4)C2)C3)c(/N=C\c2cncnc2)c1 [SRS16-86, tert-butyl 4-(adamantylamino)-3-(pyrimidin-5-ylmethyleneamino)benzoate]",Elimination rate constant (k),"[1]; Mouse, Compound Conc = 0.5 μM",<0.0048
same,Intrinsic Clearance (CLint) (mL/min/g liver),"[1]; Mouse, Compound Conc = 0.5 μM",<0.5* mL/min/g liver
same,half-life at 0.5 μM,"[1]; pH 7.4, Mouse, Compound Conc = 0.5 μM, read-out: Half life (t½)",> 1.5 h
same,half-life at 0.5 μM,"[1]; pH 7.4, stated in the text of Example 15, read-out: T1/2 in mouse liver microsomes",> 2 h
same,Percent Remaining,[2]; 0 minutes,100.0%
same,Percent Remaining,[2]; 15 minutes,82.2%
same,Percent Remaining,[2]; 30 minutes,86.5%
same,Percent Remaining,[2]; 60 minutes,83.9%
same,Percent Remaining,[2]; 120 minutes,63.9%
same,half-life at 1 μM,"[2]; C57BL/4, mouse, plasma, read-out: T1/2 in mouse plasma",> 2 h
same,serum creatinine in IRI model of kidney failure,[3]; 2 mg/kg IP 30 minutes prior to induction of IRI,effective
same,functional acute renal failure and structural organ damage after severe IRI,"[3]; 40 min ischemia, 48 h after reperfusion, 2 mg/kg i.p.",protected from functional acute renal failure
same,"serum urea and serum creatinine in ultrasevere IRI, added to Nec-1+SfA","[3]; 50 min ischemia, Nec-1+SfA-treated mice, 2 mg/kg i.p.",reduced plasma levels of serum urea and serum creatinine
same,ferroptosis-inhibiting ability (FACS),HT1080 cells,active compound
same,ferroptosis-inhibiting ability (FACS),NIH 3T3 cells,active compound
same,tubular necrosis,[4],prevented

# Source: US11192849B2, “Compounds, compositions, and methods for modulating ferroptosis and treating excitotoxic disorders” (THE TRUSTEES OF COLUMBIA UNIVERSITY IN THE CITY OF NEW YORK, priority 2013, dated 2021)
